Assay results as given in patent US12565665B2, “Compositions and methods for controlled mRNA translation and stability” (TRUSTEES OF BOSTON UNIVERSITY, priority 2022, dated 2026).

Key:
AlfaNb = settings: cited from earlier work
UAG-MS2 editing reporter [1] = assay: Stop codon editing reporter (mCherry / mNeonGreen) co-transfected with ADAR variants, flow cytometry (median mNeonGreen to mCherry); format: cell-based, human; settings: n=1
Text: For the reporter system, the inventors used the fluorescent protein-epitope tag tandem fusions of mCherry-FLAG and HA-mNeonGreen as the upstream and downstream coding regions. Without DD editing activity, translation is terminated after mCherry-FLAG. Coexpression with MCP-ADAR2-DD was hypothesized to lead to binding of MCP-DD, stop codon UAG editing to UIG, and expression of mNeonGreen (FIG. 1B).
HEK 293 FT cells were co-transfected with plasmids expressing the reporter containing 2 UAG stop codons in the hairpin and a pcDNA3 construct encoding a fusion protein composed of MCP, ADAR2-DD (E488Q), and TagBFP.
Two days later, fluorescence microscopy images were taken of the cell populations. […] The inventors repeated the experiment and analyzed the samples by flow-cytometry.
The inventors transiently co-transfected HEK 293 FT cells with the mCherry-mNeonGreen reporter, MCP-ADAR2-DD variants containing different configurations of ALFA-tag insertions and NbALFA fusions, and uncaging constructs containing miRFP670 fused to ALFA. Without wishing to be bound by theory, it was hypothesized that the intramolecular interaction would inhibit the ADAR2-DD, but that the ALFA tag on the miRFP670 would displace the lower strength ALFA variants (PE and 78), and perhaps at high enough concentrations displace the intramolecular ALFA, and lead to increased editing.
The inventors then made an ADAR-DD variant with an inserted TEV protease cut site (amino acids ENLYFQG, SEQ ID NO: 286) between the C-terminus of ADAR2-DD and the N-terminus of SpyCatcher (FIG. 5C). The inventors co-transfected HEK 293 FT cells with the reporter construct, the ADAR-DD TEVcs variant, and the TEV protease and 48 hours later analyzed the transfected cells via flow cytometry (FIG. 5D-5E).
Mutated versions were then cloned and co-transfected with an editing reporter in the absence and presence of A-1331852, and absolute background and fold change upon drug addition were determined by flow cytometry (see e.g., FIG. 22d and table 11).

UAG-MS2 editing reporter [2] = assay: Stop codon editing reporter (mCherry / mNeonGreen) co-transfected with ADAR variants, fluorescence microscopy / ImageJ quantification; format: cell-based, human; settings: HEK 293 FT cells co-transfected with reporter containing 2 UAG stop codons in the hairpin; two days after transfection
AUA reporter = assay: Creation of a START codon (AUA to AUI), EGFPd2/dTomato reporter, flow cytometry; format: cell-based, human; settings: 48 hours post-transfection, n=3
Text: To test this, an ADAR substrate was designed composed of a dsRNA hairpin containing both an AUA-codon with a mismatch at the second adenine to promote specific deamination to AUI (as opposed to IUA or IUI) and an MS2 operator motif (see e.g., FIG. 26b). The design of one large dsRNA hairpin was chosen to promote correct folding of RNA secondary structures. Previous studies have shown that MS2 operators in the 5′UTR of eukaryotic mRNA can lead to decreased translational efficiency when co-expressed with its corresponding coat protein (MS2 coat protein, or MCP), so high and low affinity variants of the MS2 operator (called here MS2-C and MS2-A respectively for the base at the stem loop) were tested with the idea that the lower affinity MS2-A loop would be less likely to inhibit translation by coat protein alone. As positive controls, the same loops were also designed with the correct AUG start codon.
These designs were cloned into pcDNA3 vectors containing a bidirectional CMV promoter driving constitutive dTomato and EGFPd2 (see e.g., FIG. 26c). The S′UTR and start codon of EGFPd2 were replaced with the editable start codon designs so the translational efficiency could be measured by looking at the EGFPd2 fluorescence relative to dTomato when co-expressed with MCP-ADAR. In this construct, if the correct start codon is skipped, the next AUG codon leads to a short, out of frame translation product.
HEK293FT cells were co-transfected with each of the reporter constructs (MS2-C w/ AUG start, MS2-C w/ AUA start, MS2-A w/ AUG start, and MS2-A w/ AUA start) and either filler DNA, inactivated ADAR2-DD (E396A) fused to MCP (MCP-dADAR), or active ADAR2-DD (E488Q) fused to MCP (MCP-ADAR). 48 hours post-transfection, cells were lifted and analyzed by flow cytometry. Transfected cells were gated by dTomato, and the median EGFPd2-to-dTomato ratio for the population was calculated per replicate (n=3) by FLOWJO. 2-Way ANOVA was performed to determine significance.

GFP-GPI reporter = assay: AUA to AUI editing creating upstream in-frame signal sequence and HA tag, live imaging and HA staining; format: cell-based, human
Text: To test this, a reporter construct was designed that contained: an MS2-A editable AUA start codon upstream of the murine IgGκ signal sequence and HA epitope tag (SS-HA), an in frame AUG start codon, GFP, and the glycosylphosphatidylinositol (GPI) anchor sequence from Thymocyte differentiation antigen 1 (GPI in diagram) (see e.g., FIG. 27a). With this reporter, in the absence of editing, the majority of the translated product will be from the AUG codon directly upstream of GFP. This will lead to the translation product residing in the cytoplasm with a non-functional GPI anchor (as this post-translational modification (PTM) must occur in the endoplasmic reticulum (ER) lumen). Upon ADAR editing of the upstream AUA to AUI, translation will initiate upstream of the signal sequence, leading to co-translational translocation of HA-GFP-GPI into the ER lumen, the addition of the GPI anchor PTM, and presentation of HA-GFP on the plasma membrane (see e.g., FIG. 27b). With this construct, the editing can be monitored by either by microscopy (looking for ER & plasma membrane localization) or directly by immunostaining for the HA-tag.
HEK cells were co-transfected with the GFP-GPI reporter and either filler DNA, MCP-dADAR, or MCP-ADAR. A GFP-GPI with a functional start codon before the secretion signal was also transfected as a positive control (GFP-GPI Control). One day after transfection, HEK cells were imaged live, and then fixed and stained for HA tag with a primary anti-HA antibody and a secondary antibody that was conjugated to ALEXAFLUOR 647 (AF647).

editable AUG reporters = assay: Destruction of an AUG start codon to IUG, EGFPd2/dTomato reporter, flow cytometry; format: cell-based, human; settings: 48 hours post-transfection; n=3
Text: To test this, an ADAR substrate was designed similar to the substrates tested above, but with an AUG codon in a dsRNA hairpin with a mismatch to promote the deamination of the correct adenine (see e.g., FIG. 28b). This scheme was similarly tested with both the high affinity MS2-C and lower affinity MS2-A variants by cloning these substrates into a pcDNA3 vector with a bidirectional CMV driving the expression of dTomato and EGFPd2 (see e.g., FIG. 28c).
HEK cells were co-transfected with the two different reporter constructs (MS2-C and MS2-A) and cither filler DNA, MCP-dADAR, or MCP-ADAR. 48 hours post-transfection, cells were lifted and analyzed by flow cytometry. Transfected cells were gated by dTomato, and the median EGFPd2-to-dTomato ratio for the population was calculated per replicate (n=3) by FLOWJO. 2-Way ANOVA was performed to determine significance.

Bcl-xL = assay: Drug response titration of Bad-BclxL iADAR system using A-1331852; format: cell-based, human; settings: ADAR-Bad-BclxL variant with point mutation F121L, drug added at transfection
4×UAG MS2 reporter = 4×UAG MS2 reporter co-transfected with iADAR variants, flow cytometry; format: cell-based, human; settings: 48 hours, n=3
Protocol: HEK293FT cells were co-transfected with the dual-input iADAR, the 4×UAG-MS2 reporter, and either EGFP(R96M) or EGFP(R96M)-AlfaTag on day 0. At the time of transfection, 500 nM of A-1331852 or DMSO was added to their respective conditions. 48 hours after transfection, cells were lifted and run via flow cytometry. The median mCherry to mNeonGreen ratio was computed for transfected cells were gated by BFP expression and mCherry expression. The experiment was then analyzed via one-way ANOVA (n=3 transfected cell populations per condition).
HEK293FT cells were co-transfected with the 4×UAG MS2 reporter and either an MCP-ADAR containing a peptide insertion at the 5′ RNA binding site (see e.g., FIG. 34b, Pep), grazoprevir iADAR (Pep-NS3) or a mutant version of the iADAR (Pep-NS3 (K690R)). At the time of transfection, 3 μM of DMSO or grazoprevir was added. 48 hours after transfection, cells were lifted and run via flow cytometry. […] The experiment was then analyzed via two-way ANOVA (n=3 transfected cell populations per condition).
To test this, LINC-ADAR constructs were created with WT, L699G, or F697Y mutations (see e.g., FIG. 35b) and HEK293FT cells were co-transfected with them and the 4×UAG-MS2 reporter in the presence of 2 μM grazoprevir or DMSO vehicle. 48 hours after transfection and drug treatment, cells were lifted and analyzed by flow cytometry. […]

lower affinity ALFA epitope variant, GRLEEELRRRLSP, SEQ ID NO: 86 [ALFA-PE]
reported interaction strength with AlfaNb (AlfaNb): nanomolar

MCP-linker-ADAR2(E396A & E488Q)-TagBFP [MCP-dADAR]
Fold Change (UAG-MS2 editing reporter [1]; 1 μM vs 0 μM A-1331852, flow cytometry): 0.9649 | Flow Cytometry Values, 0 μM (median of the ratio of mNeonGreen to mCherry) (UAG-MS2 editing reporter [1]; HEK cells co-transfected with ADAR reporter and ADAR variant, 0 μM A-1331852, two days after transfection, gated by BFP): 0.0049 | Flow Cytometry Values, 1 μM (median of the ratio of mNeonGreen to mCherry) (UAG-MS2 editing reporter [1]; HEK cells co-transfected with ADAR reporter and ADAR variant, 1 μM A-1331852, two days after transfection, gated by BFP): 0.0047 | mNeonGreen expression, fluorescence microscopy (UAG-MS2 editing reporter [2]): minimal mNeonGreen fluorescence | effect on translational efficiency from a native AUG start codon, MS2-A substrate (AUA reporter): more modest negative effect on translational efficiency | relative fluorescence (EGFPd2-to-dTomato) of MS2-C reporters compared with filler DNA (NT) (AUA reporter; 2-Way ANOVA): significantly decreased the relative fluorescence | HA tag staining of cells with AUA construct (GFP-GPI reporter; fixed, permeabilized, anti-HA and AF647 secondary): not much staining | cellular distribution of GFP from AUA-SS-GFP-GPI, live imaging (GFP-GPI reporter; one day after transfection): more cytoplasmic distribution | translational efficiency, MS2-A based AUG construct (editable AUG reporters): significant decrease in translational efficiency

ALFA epitope tag, SRLEEELRRRLTE, SEQ ID NO: 85
reported interaction strength with AlfaNb (AlfaNb): picomolar

Cc1c(-c2ccc(N3CCc4cccc(C(=O)Nc5nc6ccccc6s5)c4C3)nc2C(=O)O)cnn1CC12CC3CC(CC(C3)C1)C2 [A-1331852]
concentration at which activation maxed out (Bcl-xL; flow cytometry 48 hours): ~30 nM | concentration at which the iADAR activated (as low as) (Bcl-xL; flow cytometry 48 hours after transfection, n=3): 1 nM

B1: dual-input iADAR: N-terminal BAD, ALFA-PE at 5' RNA binding site, ADAR2-DD (F697Y), tandem AlfaNb and Bcl-xL at C-terminus (protein)
chain: MASNFTQFVLVDNGGTGDVTVAPSNFANGIAEWISSNSRSQAYKVTCSVRQSSAQNRKYTIKVEVPKGAWRSYLNMELTIPIFATNSDCELIVKAMQGLLKDGNPIPSAIAANSGIYGGSGSGAGSGSPAGGGAPGSGGGSTGAPPNLWAAQRYGRELRRMSDEFVDSFKKASQLHLPQVLADAVSRLVLGKFGDLTDNFSSPHARRKVLAGVVMTTGTDVKDAKVISVSTGTKCINGEYMSDRGLALNDCHAEIISRRSLLRFLYTQLELYLNNKDDQKRSIFQKSERGGFRLKENVQFHLYISTSPCGDARIFSPHEPILEEPAASGSGPGRLEEELRRRLSPGTGDRHPNRKARGQLRTKIESGQGTIPVRSNASIQTWDGVLQGERLLTMSCSDKIARWNVVGIQGSLLSIFVEPIYFSSIILGSLYHGDHLSRAMYQRISNIEDLPPLYTLNKPLLSGISNAEARQPGKAPNFSVNWTVGDSAIEVINATTGKDELGRASRLCKHALYCRWMRVHGKVPSHLLRSKITKPNVYHESKLAAKEYQAAKARLFTAFIKAGLGAWVEKPTEQDQYSLTGSGGTAEVQLQESGGGLVQPGGSLRLSCTASGVTISALNAMAMGWYRQAPGERRVMVAAVSERGNAMYRESVQGRFTVTRDFTNKMVSLQMDNLKPEDTAVYYCHVLEDRVDSFHDYWGQGTQVTVSSGAGSGASSNRELVVDFLSYKLSQKGYSWSQFSDVEENRTEAPEGTESEMETPSAINGNPSWHLADSPAVNGATGHSSSLDAREVIPMAAVKQALREAGDEFELRYRRAFSDLTSQLHITPGTAYQSFEQVVNELFRDGVNWGRIVAFFSFGGALCVESVDKEMQVLVSRIAAWMATYLNDHLEPWIQENGGWDTFVELYGNNGSSELIKENMHMKLYMEGTVDNHHFKCTSEGEGKPYEGTQTMRIKVVEGGPLPFAFDILATSFLYGSKTFINHTQGIPDFFKQSFPEGFTWERVTTYEDGGVLTATQDTSLQDGCLIYNVKIRGVNFTSNGPVMQKKTLGWEAFTETLYPADGGLEGRNDMALKLVGGSHLIANIKTTYRSKKPAKNLKMPGVYYVDYRLERIKEANNETYVEQHEVAVARYCDLPSKLGHKLN
median relative fluorescence with both A-1331852 and EGFP(R96M)-AlfaTag, fold greater than AlfaTag alone (4×UAG MS2 reporter; 500 nM of A-1331852): ~4.6 × | median relative fluorescence with AlfaTag and DMSO vs negative condition or A-1331852 treatment (4×UAG MS2 reporter; one-way ANOVA): significantly higher
